The target of series [1] is Stimulator of interferon genes protein (Mus musculus, UniProt Q3TBT3). The note with it: bmdc.
Series [2] concerns Mus musculus. In words: Antitumor immunity in mouse MC38 cells implanted in C57BL/6J mouse assessed as increase in IL-6 level in injected tumor at 100 to 500 ug,IT administrated in right flank on day 0 measured after 4 hrs by mesoscale assay. Type of series: functional, organism-based. Particulars: MC-38, dose 100-500 µg.
In series [3] the test system is Mus musculus. The series can be described thus: Antitumor immunity in mouse MC38 cells implanted in C57BL/6J mouse assessed as increase in IFN-beta level in injected tumor at 100 to 500 ug,IT administrated in right flank on day 0 measured after 4 hrs by ELISA. The format is functional, organism-based. The note with it: MC-38, dose 100-500 µg. In general terms: In an ELISA, binding on a coated surface is turned into a signal by an enzyme label.

Series [4] has as its system Mus musculus. The series can be described thus: Antitumor immunity in mouse MC38 cells implanted in C57BL/6J mouse assessed as increase in TNF-alpha level in injected tumor at 100 to 500 ug,IT administrated in right flank on day 0 measured after 4 hrs by mesoscale assay. Type of series: functional, organism-based. Particulars: MC-38, dose 100-500 µg.
Series [5] concerns MC-38. The series can be described thus: Antitumor activity against mouse MC38 cells implanted in C57BL/6J mouse assessed as reduction in tumor growth on right flank at 5 ug,IT administrated in right flank on day 0, 3 and 7 measured after 15 days. The format is functional, cell-based. Particulars: dose 5.0 µg, time 15.0 day.
The test system of series [6] is MC-38. In words: Antitumor activity against mouse MC38 cells implanted in C57BL/6J mouse assessed as reduction in tumor growth on right flank at 20 ug,IT administrated in right flank on day 0, 3 and 7 measured after 15 days. Type of series: functional, cell-based. Particulars: dose 20.0 µg, time 15.0 day.
The subject of series [7] is Mus musculus. In words: Antitumor immunity in mouse MC38 cells implanted in C57BL/6J mouse assessed as increase in IFN-beta level in injected tumor at 5 to 20 ug,IT administrated in right flank on day 0 measured after 4 hrs by ELISA. Type of series: functional, organism-based. Particulars: MC-38, dose 5-20 µg.
Series [8] relates to Mus musculus. The series can be described thus: Antitumor immunity in mouse MC38 cells implanted in C57BL/6J mouse assessed as increase in IL-6 level in injected tumor at 5 to 20 ug,IT administrated in right flank on day 0 measured after 4 hrs by mesoscale assay. Type of series: functional, organism-based. Particulars: MC-38, dose 5-20 µg.
Series [9] relates to Mus musculus. In words: Antitumor immunity in mouse MC38 cells implanted in C57BL/6J mouse assessed as increase in TNF-alpha level in injected tumor at 5 to 20 ug,IT administrated in right flank on day 0 measured after 4 hrs by mesoscale assay. Type of series: functional, organism-based. Particulars: MC-38, dose 5-20 µg.
The test system of series [10] is MC-38. In words: Antitumor activity against mouse MC38 cells implanted in C57BL/6J mouse assessed as reduction in tumor growth at 4 ug,IT administered for day 0,3,7 followed by anti-mouse PD-1 antibody Mdx400 incubated for 28 days measured twice a week. Type of series: functional, cell-based. The note with it: dose 4.0 µg, time 28.0 day.
The subject of the next series is B16-F10. The series can be described thus: Antitumor activity against mouse B16-F10 cells implanted in C57BL/6J mouse assessed as reduction in tumor growth at 4 ug,IT administered for day 0,3,7 followed by anti-mouse PD-1 antibody Mdx400 incubated for 28 days measured twice a week. The format is functional. The note with it: dose 4.0 µg, time 28.0 day.
Series [11] in a line: Drug uptake in plasma of C57BL/6J mouse implanted with mouse MC38 cells assessed as drug concentration at 20 ug,IT administrated on right flank on day 0 measured upto 1 hr by LC-MS analysis. Particulars: in vivo, other, dose 20 µg. The format is ADME, cell-free, MC-38.
Series [12] is described as follows: Drug uptake in plasma of C57BL/6J mouse implanted with mouse MC38 cells assessed as drug concentration at 20 ug,IT administrated on left flank on day 0 measured upto 1 hr by LC-MS analysis. Type of series: ADME, cell-free, MC-38. The note with it: in vivo, other, dose 20 µg.
Series [13] in a line: Drug uptake in tumor of C57BL/6J mouse implanted with mouse MC38 cells assessed as drug concentration at 20 ug,IT administrated on right flank on day 0 measured upto 1 hr by LC-MS analysis. The format is ADME, tissue-based, Neoplasm, MC-38. The note with it: in vivo, other, dose 20 µg.
Series [14] in a line: Drug uptake in tumor of C57BL/6J mouse implanted with mouse MC38 cells assessed as drug concentration at 20 ug,IT administrated on left flank on day 0 measured upto 1 hr by LC-MS analysis. The format is ADME, tissue-based, Neoplasm, MC-38. Particulars: in vivo, other, dose 20 µg.

SMILES strings stand for the structures. pEC50: −log10 of the molar value. The source made the active and inactive calls. The rule behind the calls is not given here.

We go through eight molecules from ChEMBL document CHEMBL5154814, “Discovery of MK-1454: A Potent Cyclic Dinucleotide Stimulator of Interferon Genes Agonist for the Treatment of Cancer” (J Med Chem, 2022).

One may read the pEC50 as the negative decadic logarithm of the EC50, by convention in mol/L.

Sequence of Stimulator of interferon genes protein (Q3TBT3 whole entry, looked up, change not shown): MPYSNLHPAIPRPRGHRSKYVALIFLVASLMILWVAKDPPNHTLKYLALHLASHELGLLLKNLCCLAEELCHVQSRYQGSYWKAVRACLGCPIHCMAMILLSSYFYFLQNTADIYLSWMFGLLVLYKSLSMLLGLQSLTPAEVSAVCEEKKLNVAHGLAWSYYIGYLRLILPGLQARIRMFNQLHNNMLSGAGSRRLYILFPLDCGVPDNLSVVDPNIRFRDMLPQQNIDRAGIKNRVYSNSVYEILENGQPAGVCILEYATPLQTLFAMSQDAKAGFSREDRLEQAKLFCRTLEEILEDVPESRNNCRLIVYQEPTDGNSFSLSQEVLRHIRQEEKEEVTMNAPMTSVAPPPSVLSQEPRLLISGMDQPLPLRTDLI

`Nc1nc2c(ncn2[C@@H]2O[C@@H]3CO[P@@](=O)(S)O[C@H]4[C@@H](O)[C@H](n5cnc6c(N)ncnc65)O[C@@H]4CO[P@@](=O)(S)O[C@@H]2C3)c(=O)[nH]1` showed a pEC50 in series [1] of 5.21.

With `Nc1nc2c(ncn2[C@@H]2O[C@@H]3COP(=O)(O)O[C@H]4[C@@H](O)[C@H](n5cnc6c(N)ncnc65)O[C@@H]4COP(=O)(O)O[C@@H]2[C@@H]3O)c(=O)[nH]1`, the result in the series with Mus musculus [2], in the series on Mus musculus [3] and in the series on Mus musculus [4] was Active.

As to `Nc1nc2c(ncn2[C@@H]2O[C@@H]3CO[P@@](=O)(S)O[C@H]4C[C@H](n5cnc6c(N)ncnc65)O[C@@H]4CO[P@@](=O)(S)O[C@@H]2[C@@H]3F)c(=O)[nH]1`, in [1], the pEC50 was 5.49.

Turning to `Nc1nc(=O)c2ncn([C@@H]3O[C@@H]4CO[P@@](=O)(S)O[C@H]5[C@H](F)[C@H](n6cnc7c(N)ncnc76)O[C@@H]5CO[P@@](=O)(S)O[C@@H]3[C@@H]4F)c2[nH]1`, the result in the series on MC-38 [5], in the series on MC-38 [6], with Mus musculus [7], in the series with Mus musculus [8], in the series on Mus musculus [9] and in the series with MC-38 [10] was Active. The outcome in the series on B16-F10 was Active.

With `Nc1nc2c(ncn2[C@@H]2O[C@@H]3CO[P@@](=O)(S)O[C@H]4[C@H]5OC[C@]4(CO[P@@](=O)(S)O[C@@H]2[C@@H]3O)O[C@H]5n2cnc3c(N)ncnc32)c(=O)[nH]1`, the pEC50 in series [1] is 5.27.

As to `Nc1nc2c(ncn2[C@@H]2O[C@@H]3COP(=O)(O)O[C@H]4[C@H]5OC[C@]4(COP(=O)(O)O[C@@H]2C3)O[C@H]5n2cnc3c(N)ncnc32)c(=O)[nH]1`, in series [1], the pEC50 is under 4.00.

With `Nc1nc2c(ncn2[C@@H]2O[C@@H]3CO[P@@](=O)(S)O[C@H]4[C@@H](F)[C@H](n5cnc6c(N)ncnc65)O[C@@H]4CO[P@@](=O)(S)O[C@@H]2[C@@H]3O)c(=O)[nH]1`, in series [1], the negative-log EC50 (pEC50) was 5.81.

For `N.N.Nc1nc2c(ncn2[C@@H]2O[C@@H]3CO[P@@](=O)(S)O[C@H]4[C@H](F)[C@H](n5cnc6c(N)ncnc65)O[C@@H]4CO[P@@](=O)(S)O[C@@H]2[C@@H]3F)c(=O)[nH]1`, the Drug uptake entry in series [11], in series [12], in [13] and in series [14] was “Active” in each case.
